Source: PubChem BioAssay AID256 (DTP/NCI, 2004)
Inconclusive results and toxic doses are left out. How the source made its calls: active means survival T/C of 150% or more; inactive means T/C below 125% in these data.

System: CD2F1 mice, L1210 leukemia ip, survival T/C
Assay: NCI In Vivo Anticancer Drug Screen. Data for tumor model L1210 Leukemia (intraperitoneal) in CD2F1 (CDF1) mice
Settings: higher = longer survival
How it was run: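 Read-out first: treated-group measurement over vehicle-control measurement, expressed as a ratio. Animals bore a transplanted tumor line and were dosed with compound or vehicle.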

[1] = endpoint: mean survival time, dose: 100.0 mg/kg/injection, schedule: Q04DX003 (ip), vehicle: saline with Tween-80
[2] = endpoint: mean survival time, dose: 200.0 mg/kg/injection, schedule: Q04DX003 (ip), vehicle: saline with Tween-80
[3] = endpoint: mean survival time, dose: 400.0 mg/kg/injection, schedule: Q04DX003 (ip), vehicle: saline with Tween-80
[4] = endpoint: mean survival time, dose: 100.0 mg/kg/injection, schedule: Q01DX001 (ip), vehicle: saline with Tween-80
[5] = endpoint: mean survival time, dose: 200.0 mg/kg/injection, schedule: Q01DX001 (ip), vehicle: saline with Tween-80
[6] = endpoint: mean survival time, dose: 400.0 mg/kg/injection, schedule: Q01DX001 (ip), vehicle: saline with Tween-80
[7] = endpoint: mean survival time, dose: 50.0 mg/kg/injection, schedule: Q01DX009 (ip), vehicle: saline with Tween-80
[8] = endpoint: mean survival time, dose: 100.0 mg/kg/injection, schedule: Q01DX009 (ip), vehicle: saline with Tween-80
[9] = endpoint: mean survival time, dose: 200.0 mg/kg/injection, schedule: Q01DX009 (ip), vehicle: saline with Tween-80
[10] = endpoint: mean survival time, dose: 100.0 mg/kg/injection, schedule: Q04DX002 (ip), vehicle: saline with Tween-80
[11] = endpoint: mean survival time, dose: 200.0 mg/kg/injection, schedule: Q04DX002 (ip), vehicle: saline with Tween-80
[12] = endpoint: mean survival time, dose: 400.0 mg/kg/injection, schedule: Q04DX002 (ip), vehicle: saline with Tween-80
[13] = endpoint: mean survival time, dose: 400.0 mg/kg/injection, schedule: Q01DX009 (ip), vehicle: saline with Tween-80

Measured: T/C

CC(Cl)CN(CC(C)Cl)c1ccc2c(c1)Cc1cc(F)ccc1-2 (stereo unspecified)
inactive: [1] 98 % of control | [2] 96 % of control | [3] 100 % of control

COc1ccc(C)c2nc3ccccc3nc12
inactive: [4] 98 % of control | [5] 97 % of control | [6] 98 % of control

c1ccc(CCc2ccnc3ccccc23)cc1
inactive: [7] 94 % of control | [8] 98 % of control | [9] 100 % of control

COc1ccccc1NC(=O)Nc1ccc(Cl)cc1OC
inactive: [10] 87 % of control | [11] 94 % of control | [12] 97 % of control

O=C1NNC(=O)C2C3CCC(C3)C12 (stereo unspecified)
inactive: endpoint: mean survival time, dose: 100.0 mg/kg/injection, schedule: Q04DX003 (ip), vehicle: saline sonified 95 % of control | endpoint: mean survival time, dose: 200.0 mg/kg/injection, schedule: Q04DX003 (ip), vehicle: saline sonified 89 % of control

CSc1cc(NC(C)=O)nc2nc[nH]c12
inactive: endpoint: mean survival time, dose: 100.0 mg/kg/injection, schedule: Q01DX001 (ip), vehicle: Klucel (hydroxypropylcellulose) (HPC) 98 % of control | endpoint: mean survival time, dose: 200.0 mg/kg/injection, schedule: Q01DX001 (ip), vehicle: Klucel (hydroxypropylcellulose) (HPC) 97 % of control

CCOC(=O)C(=NN)C(=O)OCC
inactive: [4] 97 % of control | [8] 96 % of control | [5] 105 % of control | [9] 101 % of control | [6] 102 % of control | [13] 93 % of control

NC(C(=O)O)C(O)C(=O)O (stereo unspecified)
inactive: endpoint: mean survival time, dose: 37.5 mg/kg/injection, schedule: Q01DX009 (ip), vehicle: saline 101 % of control | endpoint: mean survival time, dose: 75.0 mg/kg/injection, schedule: Q01DX009 (ip), vehicle: saline 97 % of control | endpoint: mean survival time, dose: 150.0 mg/kg/injection, schedule: Q01DX009 (ip), vehicle: saline 98 % of control

COc1ccc(/C=N\NC(=O)CCCCCCCCC(=O)N/N=C\c2ccc(OC)c(O)c2)cc1O
inactive: [7] 97 % of control | [8] 97 % of control | [9] 105 % of control

O=C(O)CS(=O)c1ccc(Cl)cc1 (stereo unspecified)
inactive: endpoint: mean survival time, dose: 50.0 mg/kg/injection, schedule: Q01DX001 (ip), vehicle: saline with Tween-80 104 % of control | [4] 95 % of control | [5] 88 % of control

COC1C(O)C(C)OC(OC2CC(O)C3(C)C(CCC4C3CCC3(C)C(C5=CC(=O)OC5)CCC43O)C2)C1O (stereo unspecified) (tested in a mixture with another compound)
inactive: endpoint: mean survival time, dose: 50.0 mg/kg/injection, schedule: Q01DX001 (ip), vehicle: saline sonified 87 % of control

Nc1ccc2ccccc2c1-c1c(N)ccc2ccccc12
inactive: endpoint: mean survival time, dose: 18.7 mg/kg/injection, schedule: Q04DX002 (ip), vehicle: saline with Tween-80 91 % of control | endpoint: mean survival time, dose: 37.5 mg/kg/injection, schedule: Q04DX002 (ip), vehicle: saline with Tween-80 91 % of control | endpoint: mean survival time, dose: 75.0 mg/kg/injection, schedule: Q04DX002 (ip), vehicle: saline with Tween-80 102 % of control

C=C(C)C(=NC(C)(C)C)Nc1ccccc1
inactive: endpoint: median survival time, dose: 6.25 mg/kg/injection, schedule: Q01DX009 (ip), vehicle: saline with Tween-80 105 % of control | endpoint: median survival time, dose: 12.5 mg/kg/injection, schedule: Q01DX009 (ip), vehicle: saline with Tween-80 110 % of control | endpoint: median survival time, dose: 25.0 mg/kg/injection, schedule: Q01DX009 (ip), vehicle: saline with Tween-80 108 % of control | endpoint: median survival time, dose: 50.0 mg/kg/injection, schedule: Q01DX009 (ip), vehicle: saline with Tween-80 108 % of control | endpoint: median survival time, dose: 100.0 mg/kg/injection, schedule: Q01DX009 (ip), vehicle: saline with Tween-80 112 % of control | endpoint: median survival time, dose: 200.0 mg/kg/injection, schedule: Q01DX009 (ip), vehicle: saline with Tween-80 121 % of control

Cc1c2c(c(O)c3c(O)cccc13)C(=O)C1(O)C(O)=C(C(N)=O)C(=O)CC1C2 (stereo unspecified)
inactive: endpoint: mean survival time, dose: 75.0 mg/kg/injection, schedule: Q01DX001 (ip), vehicle: other 92 % of control | endpoint: mean survival time, dose: 150.0 mg/kg/injection, schedule: Q01DX001 (ip), vehicle: other 94 % of control | endpoint: mean survival time, dose: 300.0 mg/kg/injection, schedule: Q01DX001 (ip), vehicle: other 102 % of control

[CH3][Sn]1([CH3])[O]C2C(CO)OC(n3cnc4c(=O)[nH]c(N)nc43)C2[O]1 (stereo unspecified)
inactive: endpoint: mean survival time, dose: 12.5 mg/kg/injection, schedule: Q01DX005 (ip), vehicle: other 98 % of control | endpoint: mean survival time, dose: 25.0 mg/kg/injection, schedule: Q01DX005 (ip), vehicle: other 101 % of control | endpoint: mean survival time, dose: 50.0 mg/kg/injection, schedule: Q01DX005 (ip), vehicle: other 102 % of control | endpoint: mean survival time, dose: 100.0 mg/kg/injection, schedule: Q01DX005 (ip), vehicle: other 93 % of control

O=C(N/N=C/c1cc2c(cc1[N+](=O)[O-])OCO2)c1ccccc1
inactive: endpoint: mean survival time, dose: 12.5 mg/kg/injection, schedule: Q01DX009 (ip), vehicle: other 100 % of control | endpoint: mean survival time, dose: 25.0 mg/kg/injection, schedule: Q01DX009 (ip), vehicle: other 104 % of control | endpoint: mean survival time, dose: 50.0 mg/kg/injection, schedule: Q01DX009 (ip), vehicle: other 94 % of control | endpoint: mean survival time, dose: 100.0 mg/kg/injection, schedule: Q01DX009 (ip), vehicle: other 96 % of control | endpoint: mean survival time, dose: 200.0 mg/kg/injection, schedule: Q01DX009 (ip), vehicle: other 94 % of control

CC1=C(/C=C/C(=O)O)C(C)(C)CCC1
inactive: [10] 92 % of control | [11] 96 % of control | [12] 92 % of control

O=S(=O)(O)O.[Pt].c1ccc([PH+](c2ccccc2)c2ccccc2)cc1.c1ccc([PH+](c2ccccc2)c2ccccc2)cc1.c1ccc([PH+](c2ccccc2)c2ccccc2)cc1
inactive: endpoint: mean survival time, dose: 3.12 mg/kg/injection, schedule: Q04DX003 (ip), vehicle: distilled water + Tween-80 102 % of control | endpoint: mean survival time, dose: 6.25 mg/kg/injection, schedule: Q04DX003 (ip), vehicle: distilled water + Tween-80 102 % of control | endpoint: mean survival time, dose: 12.5 mg/kg/injection, schedule: Q04DX003 (ip), vehicle: distilled water + Tween-80 105 % of control | endpoint: mean survival time, dose: 25.0 mg/kg/injection, schedule: Q04DX003 (ip), vehicle: distilled water + Tween-80 102 % of control

CN1C(=O)CCSC1=S
inactive: endpoint: mean survival time, dose: 25.0 mg/kg/injection, schedule: Q04DX002 (ip), vehicle: saline with Tween-80 94 % of control | endpoint: mean survival time, dose: 50.0 mg/kg/injection, schedule: Q04DX002 (ip), vehicle: saline with Tween-80 105 % of control | [10] 105 % of control

N#CC(C#N)=C1c2ccccc2C(=O)c2ccccc21
inactive: [8] 90 % of control | [9] 86 % of control | [13] 90 % of control

CC(=O)Oc1ccc2c3c(ccc2c1)C1CCC(=O)C1(C)CC3 (stereo unspecified)
inactive: [1] 97 % of control | [2] 92 % of control | [3] 97 % of control

O=C(O)c1cc(=O)cc(C(=O)O)o1
inactive: endpoint: mean survival time, dose: 25.0 mg/kg/injection, schedule: Q01DX009 (ip), vehicle: saline with Tween-80 91 % of control | endpoint: mean survival time, dose: 50.0 mg/kg/injection, schedule: Q01DX009 (ip), vehicle: Klucel (hydroxypropylcellulose) (HPC) 91 % of control | [7] 90 % of control | endpoint: mean survival time, dose: 100.0 mg/kg/injection, schedule: Q01DX009 (ip), vehicle: Klucel (hydroxypropylcellulose) (HPC) 91 % of control | [8] 95 % of control

COc1ccc(OC)c(/C=C/c2ccc3ccccc3[n+]2C)c1
inactive: endpoint: mean survival time, dose: 5.0 mg/kg/injection, schedule: Q01DX009 (ip), vehicle: saline with Tween-80 98 % of control | endpoint: mean survival time, dose: 10.0 mg/kg/injection, schedule: Q01DX009 (ip), vehicle: saline with Tween-80 88 % of control
